We go through one molecule from ChEMBL document CHEMBL1150846, “Thorectandrols A and B, new cytotoxic sesterterpenes from the marine sponge Thorectandra species” (J Nat Prod, 2001).

For orientation: IC50 means the concentration needed to halve the response being measured.

SMILES strings stand for the structures. Converted amounts (≈) assume the structure as drawn.

For one assay, the system named is MCF7. In words: Cytotoxicity against human MCF7 cells after 2 days by XTT assay. In kind it is functional, cell-based. The following applies: MCF7, 48 h.
Another assay relates to Malme-3M. In words: Cytotoxicity against human MALME-3M cells after 2 days by XTT assay. It counts as functional, cell-based. The settings on record: 48 h. On the technique in general: Tetrazolium dyes change colour on reduction, which living cells bring about.

Regarding `C=C1CCC[C@@H]2[C@@](C)(CC/C(C)=C/C[C@@H](O)C3=CC(=O)OC3O)[C@@H](C)CC[C@@]12C` (some centres not stated) [PALAUOLOL], the values for the IC50 with MCF7 and in the assay on Malme-3M were 14.2 µg/mL (≈ 35.3 µM) and 0.46 µg/mL (≈ 1.14 µM), respectively.
